In BindingDB's records for doi:10.1021/acs.jmedchem.1c01951 (University of South Carolina, 2022):

Target: T1, Myosin-IIIb (Homo sapiens, UniProt Q8WXR4)
T1 sequence (Q8WXR4 whole entry): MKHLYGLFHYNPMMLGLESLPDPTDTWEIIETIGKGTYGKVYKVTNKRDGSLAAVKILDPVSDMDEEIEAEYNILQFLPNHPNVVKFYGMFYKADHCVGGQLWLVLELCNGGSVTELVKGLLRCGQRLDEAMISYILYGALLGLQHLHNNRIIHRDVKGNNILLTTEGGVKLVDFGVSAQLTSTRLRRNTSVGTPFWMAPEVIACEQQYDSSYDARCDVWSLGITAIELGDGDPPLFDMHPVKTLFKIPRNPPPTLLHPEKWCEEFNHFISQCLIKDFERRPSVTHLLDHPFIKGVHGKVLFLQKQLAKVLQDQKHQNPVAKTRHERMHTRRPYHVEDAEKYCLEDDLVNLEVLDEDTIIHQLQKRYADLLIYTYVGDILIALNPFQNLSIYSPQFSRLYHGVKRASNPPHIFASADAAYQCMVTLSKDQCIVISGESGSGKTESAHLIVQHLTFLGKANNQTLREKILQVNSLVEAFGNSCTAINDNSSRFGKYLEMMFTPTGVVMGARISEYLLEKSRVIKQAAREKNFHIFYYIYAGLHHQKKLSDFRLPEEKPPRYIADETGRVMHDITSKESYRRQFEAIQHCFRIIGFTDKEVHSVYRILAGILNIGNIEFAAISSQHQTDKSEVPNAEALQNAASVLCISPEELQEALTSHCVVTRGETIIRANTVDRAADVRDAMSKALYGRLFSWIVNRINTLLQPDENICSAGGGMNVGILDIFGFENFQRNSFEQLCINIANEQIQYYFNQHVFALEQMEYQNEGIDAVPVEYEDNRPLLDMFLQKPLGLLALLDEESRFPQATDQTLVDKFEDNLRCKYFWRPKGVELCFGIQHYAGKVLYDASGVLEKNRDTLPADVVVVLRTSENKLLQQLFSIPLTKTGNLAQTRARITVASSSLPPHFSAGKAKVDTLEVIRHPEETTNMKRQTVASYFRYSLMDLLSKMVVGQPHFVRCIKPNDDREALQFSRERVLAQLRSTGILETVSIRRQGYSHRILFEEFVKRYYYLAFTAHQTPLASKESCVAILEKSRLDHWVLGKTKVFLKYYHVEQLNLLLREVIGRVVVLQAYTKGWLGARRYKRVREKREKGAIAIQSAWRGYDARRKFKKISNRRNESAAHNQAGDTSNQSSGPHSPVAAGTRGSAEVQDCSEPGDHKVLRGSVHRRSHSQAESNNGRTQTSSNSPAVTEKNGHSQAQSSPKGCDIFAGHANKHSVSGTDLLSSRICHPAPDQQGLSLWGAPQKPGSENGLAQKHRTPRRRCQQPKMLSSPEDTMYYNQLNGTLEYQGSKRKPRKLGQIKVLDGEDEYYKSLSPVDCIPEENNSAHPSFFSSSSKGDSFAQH
Experiment: Binding affinity to human MYO3B assessed as dissociation constant by KdELECT Discover assay

- Kd: > 30 µM
SMILES: CN1CCN(C(=O)c2ccc3cc(CCNc4ccnc5ccc(C#N)cc45)ccc3c2)CC1
